# Laboratory results from patent publication US20040087623A1, “Pyrazole derivatives against tgf overexpression” (priority 2001, published 2004).
# Counter-ions that a name gives are not always drawn.
# Test system: TGF-β signaling (PAI-1 promoter-luciferase in HepG2 cells)
# Experiment: Assay 1: inhibition of TGF-β induced PAI-1 promoter luciferase reporter in HepG2 cells
# Conditions: 500 μM CPO with TGF-β; % of those obtained in column 11 (TGF-β only)
# Procedure: The assay was performed in HepG2 cells stably transfected with the PAI-1 promoter (known to be a strong TGF-β responsive promoter) linked to a luciferase (firefly) reporter gene. The compounds were selected on their ability to inhibit luciferase activity in cells exposed to TGF-β. In addition cells were transfected with a second luciferase (Renilla) gene which was not driven by a TGF-β responsive promoter and was used as a toxicity control.
# (96 well-)microplates are seeded, using a multidrop apparatus, with the stably transfected cell line at a concentration of 35000 cells per well in 200 μl of serum-containing medium. These plates are placed in a cell incubator.
# 18 to 24 hours later (Day 2), cell-incubation procedure is launched. Cells are incubated with TGF-β and a candidate compound at concentrations in the range 50 nM to 10 μM (final concentration of DMSO 1%). The final concentration of TGF-β (rhTGFβ-1) used in the test is 1 ng/mL. […] The final volume of the test reaction is 150 μl. Each well contains only one candidate compound and its effect on the PAI-1 promoter is monitored.
# Columns 11 and 12 are employed as controls. Column 11 contains 8 wells in which the cells are incubated in the presence of TGF-β, without a candidate compound. Column 11 is used to determine the ‘reference TGF-β induced firefly luciferase value’ against which values measured in the test wells (to quantify inhibitory activity) may be compared. In wells A12 to D12, cells are grown in medium without TGF-β. The firefly luciferase values obtained from these positions are representative of the ‘basal firefly luciferase activity’. In wells E12 to H12, cells are incubated in the presence of TGF-β and 500 μM CPO (Cyclopentenone, Sigma), a cell toxic compound.
# 12 to 18 hours later (day 3), the luciferase quantification procedure is launched. The following reactions are performed using reagents obtained from a Dual Luciferase Assay Kit (Promega). Cells are washed and lysed with the addition of 10 μl of passive lysis buffer (Promega). Following agitation (15 to 30 mins), luciferase activities of the plates are read in a dual-injector luminometer (BMG lumistar). For this purpose, 50 μl of luciferase assay reagent and 50 μl of ‘Stop & Glo’ buffer are injected sequentially to quantify the activities of both luciferases. The mean Luciferase activity value obtained in wells A11 to H11 (Column 11, TGF-β only) is considered to represent 100% and values obtained in wells A12 to D12 (cells in medium alone) give a basal level (0%). For each of the compounds tested, a concentration response curve is constructed from which an IC50 value can be determined graphically.
row,Compound,firefly and renilla luciferase activities (toxicity control)
1,"O=C1C=CCC1 [CPO, Cyclopentenone, reference compound]",around 50%

# Same assay, conditions: Homo sapiens, HepG2, read-out: IC50 value in Assay 1
row,IC50,Compound
1,≤ 5 µM,"c1ccc(-c2cc(-c3c[nH]nc3-c3ccccn3)ccn2)cc1 [Example 1, 2-Phenyl-4-(3-pyridin-2-yl-1H-pyrazol-4-yl)pyridine]"
2,≤ 5 µM,"FC(F)(F)c1ccc(-c2cc(-c3c[nH]nc3-c3ccccn3)ccn2)cc1 [Example 2, 2-[4(Trifluoromethyl)Phenyl]-4-(3-pyridin-2-yl-1H-pyrazol-4-yl) Pyridine]"
3,≤ 5 µM,"COc1ccc(-c2cc(-c3c[nH]nc3-c3ccccn3)ccn2)cc1 [Example 3, 2-(4-Methoxyphenyl)-4-(3-pyridin-2-yl-1H-pyrazol-4-yl)pyridine]"
4,≤ 5 µM,"Fc1ccc(-c2cc(-c3c[nH]nc3-c3ccccn3)ccn2)cc1 [Example 4, 2-(4-Fluorophenyl)-4-(3-pyridin-2-yl-1H-pyrazol-4-yl)pyridine]"
5,≤ 5 µM,"Clc1ccc(-c2cc(-c3c[nH]nc3-c3ccccn3)ccn2)cc1 [Example 5, 2-(4-Chlorophenyl)-4-(3-pyridin-2-yl-1H-pyrazol4-yl)pyridine]"
6,≤ 5 µM,"c1ccc(-c2n[nH]cc2-c2ccnc(-c3ccco3)c2)nc1 [Example 6, 2-(Furan-2-yl)-4-(3-pyridin-2-yl-1H-pyrazol-4-yl)pyridine]"
7,≤ 5 µM,"FC(F)(F)Oc1ccc(-c2cc(-c3c[nH]nc3-c3ccccn3)ccn2)cc1 [Example 7, 2-(4-Trifluoromethoxyphenyl)-4-(3-pyridin-2-yl-1H-pyrazol-4-yl)pyridine]"
8,≤ 5 µM,"Cc1ccc(-c2cc(-c3c[nH]nc3-c3ccccn3)ccn2)cc1 [Example 8, 2-(4-Methylphenyl)-4-(3-pyridin-2-yl-1H-pyrazol-4-yl)pyridine]"
9,≤ 5 µM,"CCc1ccc(-c2cc(-c3c[nH]nc3-c3ccccn3)ccn2)cc1 [Example 9, 2-(4-Ethylphenyl)-4-(3-pyridin-2-yl-1H-pyrazol-4-yl)pyridine]"
10,≤ 5 µM,"c1ccc(-c2n[nH]cc2-c2ccnc(-c3ccsc3)c2)nc1 [Example 10, 2-(Thiophen-3-yl)-4-(3-pyridin-2-yl-1H-pyrazol-4-yl)pyridine]"
11,≤ 5 µM,"c1ccc(-c2n[nH]cc2-c2ccnc(-c3ccc(OCCN4CCCC4)cc3)c2)nc1 [Example 11, 2-[4-(2-Pyrrolidin-1-ylethoxy)-phenyl]-4-(3-pyridin-2-yl-1H-pyrazol-4-yl)pyridine]"
12,≤ 5 µM,"N#CCCNCc1ccc(-c2cc(-c3c[nH]nc3-c3ccccn3)ccn2)cc1 [Example 12, 3-({4-[4-(3-Pyridin-2-yl-1H-pyrazol-4-yl)pyridin-2-yl]benzyl}amino)propanenitrile]"
13,≤ 5 µM,"c1ccc(-c2n[nH]cc2-c2ccnc(-c3ccc(N4CCOCC4)cc3)c2)nc1 [Example 13, 4-{4-[4-(3-Pyridin-2-yl-1H-pyrazol-4-yl)-pyridin-2-yl]-phenyl}-morpholine]"
14,≤ 5 µM,"Cn1cnc(COc2ccc(-c3cc(-c4c[nH]nc4-c4ccccn4)ccn3)cc2)c1 [Example 14, 2-[4-(1-Methyl-1-H-imidazol-4-ylmethoxy)-phenyl]-4-(3-pyridin-2-yl-1H-pyrazol-4-yl)-pyridine]"
15,≤ 5 µM,"Cn1ccnc1COc1ccc(-c2cc(-c3c[nH]nc3-c3ccccn3)ccn2)cc1 [Example 15, 2-[4-(1-Methyl-1H-imidazol-2-ylmethoxy)-phenyl]-4-(3-pyridin-2-yl-1H-pyrazol-4-yl)pyridine]"
16,≤ 5 µM,"Cn1cncc1COc1ccc(-c2cc(-c3c[nH]nc3-c3ccccn3)ccn2)cc1 [Example 16, 2-[4-(3-Methyl-3H-imidazol-4-ylmethoxy)-phenyl]-4-(3-pyridin-2-yl-1-H-pyrazol-4)-pyridine]"
17,≤ 5 µM,"c1ccc(-c2n[nH]cc2-c2ccnc(-c3ccc(OCCn4ccnc4)cc3)c2)nc1 [Example 17, 2-[4-(2-{1H-Imidazol-1-yl}-ethoxy)-phenyl]-4-(3-pyridin-2-yl-1H-pyrazol-4-yl)-pyridine]"
18,≤ 5 µM,c1ccc(-c2n[nH]cc2-c2ccnc(-c3ccc(CNC4CCOCC4)cc3)c2)nc1 [Example 18]
19,≤ 5 µM,"CN(Cc1ccc(-c2cc(-c3c[nH]nc3-c3ccccn3)ccn2)cc1)c1cccnc1 [Example 20, Pyridin-3-yl-methyl-{4-[4-(3-pyridin-2-yl-1H-pyrazol-4-yl)pyridin-2-yl]benzyl}-amine]"

row,IC50,Compound
1,≤ 5 µM,"O=C(CN1CCCCC1)Nc1ccc(-c2cc(-c3c[nH]nc3-c3ccccn3)ccn2)cc1 [Example 21, 2-Piperidin-1-yl-N-{4-[4-(3-pyridin-2-yl-1H-pyrazol-4-yl)-pyridin-2-yl]-phenyl}-acetamide]"
2,≤ 5 µM,"O=C(CN1CCOCC1)Nc1ccc(-c2cc(-c3c[nH]nc3-c3ccccn3)ccn2)cc1 [Example 23, 2-Morpholin-1-yl-N-{4-[4-(3-pyridin-2-yl-1H-pyrazol-4-yl)-pyridin-2-yl]phenyl}-acetamide]"
3,≤ 5 µM,"CN1CCN(CC(=O)Nc2ccc(-c3cc(-c4c[nH]nc4-c4ccccn4)ccn3)cc2)CC1 [Example 24, 2-(4-Methyl-piperazin-1-yl)-N-{4-[4-(3-pyridin-2-yl-1H-pyrazol-4-yl)-pyridin-2-yl]-phenyl}-acetamide]"
4,≤ 5 µM,"O=C(CCN1CCCCC1)Nc1ccc(-c2cc(-c3c[nH]nc3-c3ccccn3)ccn2)cc1 [Example 25, 3-Piperidin-1-yl-N{4-[4-(3-pyridin-2-yl-1H-pyrazol-4-yl)-pyridin-2-yl]-phenyl}-propionamide hydrochloride]"
5,≤ 5 µM,O=C(CCN1CCOCC1)Nc1ccc(-c2cc(-c3c[nH]nc3-c3ccccn3)ccn2)cc1 [Example 26]
6,≤ 5 µM,"CN1CCN(CCC(=O)Nc2ccc(-c3cc(-c4c[nH]nc4-c4ccccn4)ccn3)cc2)CC1 [Example 27, 3-(4-Methyl-piperazin-1-yl)-N{4-[4-(3-pyridin-2-yl-1H-pyrazol-4-yl)-pyridin-2yl]-phenyl}-propionamide]"
7,≤ 5 µM,"O=C(NC1CCOCC1)c1ccc(-c2cc(-c3c[nH]nc3-c3ccccn3)ccn2)cc1 [Example 28, 4-[4-(3-Pyridin-2-yl-1H-pyrazol-4-yl)-pyridin-2-yl]-N-(tetrahydro-pyran-4-yl)-benzamide]"
8,≤ 5 µM,"CCN1CCCC1CNC(=O)c1ccc(-c2cc(-c3c[nH]nc3-c3ccccn3)ccn2)cc1 (stereo not shown) [Example 29, N-(1-Ethyl-pyrolidin-2-ylmethyl)-4-[4-(3-pyridin-2-yl-1H-pyrazol-4-yl)-pyridin-2-yl]-benzamide]"
9,≤ 5 µM,"COC1CCN(Cc2ccc(-c3cc(-c4c[nH]nc4-c4ccccn4)ccn3)cc2)CC1 [Example 34, 4-Methoxy-1-{4-[4-(3-pyridin-2-yl-1H-pyrazol-4-yl)pyridin-2-yl]benzyl}-piperidine]"
10,≤ 5 µM,"CN1CCC(NCc2ccc(-c3cc(-c4c[nH]nc4-c4ccccn4)ccn3)cc2)CC1 [Example 37, (1-Methyl-piperidin-4-yl)-{4-[4-(3-pyridin-2-yl-1H-pyrazol-4-yl)pyridin-2-yl]benzyl}-amine]"
11,≤ 5 µM,"CN1CCN(C(=O)c2ccc(-c3cc(-c4c[nH]nc4-c4ccccn4)ccn3)cc2)CC1 [Example 38, 1-Methyl-4-{4-[4-(3-pyridin-2-yl-1H-pyrazol-4-yl)-pyridin-2-yl]-benzoyl}-piperazine]"
12,≤ 5 µM,"O=C(c1ccc(-c2cc(-c3c[nH]nc3-c3ccccn3)ccn2)cc1)N1CCOCC1 [Example 39, 4-{4-[4-(3-Pyridin-2-yl-1H-pyrazol-4-yl)-pyridin-2-yl]-benzoyl}-morpholine]"
13,≤ 5 µM,"CN(C)C1CCN(C(=O)c2ccc(-c3cc(-c4c[nH]nc4-c4ccccn4)ccn3)cc2)CC1 [Example 40, (4-Dimethylamino)-1-{4-[4-(3-pyridin-2-yl-1H-pyrazol-4-yl)-pyridin-2-yl]-benzoyl}-piperidine]"
14,≤ 5 µM,"CN(C)Cc1ccc(-c2cc(-c3c[nH]nc3-c3ccccn3)ccn2)cc1 [Example 43, Dimethyl-{4-[4-(3-pyridin-2-yl-1H-pyrazol-4-yl)pyridin-2-yl]-benzyl}-amine]"
15,≤ 5 µM,"O=C(NCC1CCOCC1)c1ccc(-c2cc(-c3c[nH]nc3-c3ccccn3)ccn2)cc1 [Example 44, 4-[4-(3-Pyridin-2-yl-1H-pyrazol-4-yl)-pyridin-2-yl]-N-(tetrahydropyran-4-yl-methyl)-benzamide]"
16,≤ 5 µM,"COCCN(C)C(=O)c1ccc(-c2cc(-c3c[nH]nc3-c3ccccn3)ccn2)cc1 [Example 45, N-(2-Methoxy-ethyl)-N-methyl-4-[4-(3-pyridin-2-yl-1H-pyrazol-4-yl)-pyridin-2-yl]-benzamide]"
17,≤ 5 µM,"COCCNC(=O)c1ccc(-c2cc(-c3c[nH]nc3-c3ccccn3)ccn2)cc1 [Example 46, N-(2-Methoxy-ethyl)-4-[4-(3-pyridin-2-yl-1H-pyrazol-4-yl)-pyridin-2-yl]-benzamide]"
18,≤ 5 µM,"O=C(NCC1CCCCC1)c1ccc(-c2cc(-c3c[nH]nc3-c3ccccn3)ccn2)cc1 [Example 47, N-Cyclohexylmethyl-4-[4-(3-pyridin-2-yl-1H-pyrazol-4-yl)-pyridin-2-yl]-benzamide]"

row,Compound,IC50
1,"c1ccc(-c2n[nH]cc2-c2ccnc(-c3ccc(CN4CCOCC4)cc3)c2)nc1 [Example 19, {4-[4-(3-Pyridin-2-yl-1H-pyrazol-4-yl)pyridin-2-yl]benzyl}-morpholine hydrochloride]",≤ 5 µM
2,"O=C(CN1CCCC1)Nc1ccc(-c2cc(-c3c[nH]nc3-c3ccccn3)ccn2)cc1 [Example 22, 2-Pyrrolidin-1-yl-N-{4-[4-(3-pyridin-2-yl-1H-pyrazol-4-yl)-pyridin-2-yl]-phenyl}-acetamide]",≤ 5 µM
